In patent US10829520B2, “Beta-hairpin peptidomimetics” (POLYPHOR AG, priority 2015, dated 2020):
Where a SMILES comes first, the peptide text is derived from it. Bridges are numbered along the chain shown (N, C = ends). [ ]: non-standard residue; d: D form. aThr = C[C@H](O)[C@H](N)C(=O)O; Tle = CC(C)(C)[C@H](N)C(=O)O; Nle = CCCC[C@H](N)C(=O)O; Dab = NCC[C@H](N)C(=O)O; Dap = NC[C@H](N)C(=O)O; Aib = CC(C)(N)C(=O)O

Assays:
Type in all cases: cell-based
[1] = system: Escherichia coli ATCC 25922; conditions: ATCC 25922
Method in brief: (§1)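 MIC in μg/mL; CLSI microdilution; cation-adjusted Mueller-Hinton II with Polysorbate 80 (0.002%); 10^6 CFU/mL; 35° C, 18-20 h.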

[2] = system: Acinetobacter baumannii 872842; conditions: 872842
[3] = system: Klebsiella pneumoniae 968733; conditions: 968733
Escherichia coli 926415 = conditions: 926415
[4] = system: Acinetobacter baumannii DSM 30008; conditions: DSM 30008
Method in brief: as §1

[5] = system: Klebsiella pneumoniae SSI #3010; conditions: SSI #3010
Method in brief: as §1

[6] = system: Pseudomonas aeruginosa ATCC 27853; conditions: ATCC 27853
Method in brief: as §1

[7] = system: human red blood cells (hRBC); assay: Hemolysis of human red blood cells; conditions: red cells of human, 1 h, 100 μg/mL
Method in brief: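 Fresh human red blood cells are washed in PBS, then shaken with peptide (100 μg/mL) at 37° C. for 1 h, final erythrocyte density about 0.9×10^9 cells/mL. After centrifugation, diluted supernatants are read at 540 nm against buffer (0%) and Triton X-100 (100%) lysis controls.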

| SMILES | Escherichia coli ATCC 25922 MIC [1] | Acinetobacter baumannii 872842 MIC [2] | Klebsiella pneumoniae 968733 MIC [3] | Escherichia coli 926415 MIC (Escherichia coli 926415) | Acinetobacter baumannii DSM 30008 MIC [4] | Klebsiella pneumoniae SSI #3010 MIC [5] | Pseudomonas aeruginosa ATCC 27853 MIC [6] | Hemolysis at 100 μg/mL [7] |
| --- | --- | --- | --- | --- | --- | --- | --- | --- |
| CCCC[C@@H]1NC(=O)[C@@H]2CCCN2C(=O)[C@H]2CCCN2C(=O)[C@H](CO)NC(=O)[C@H](C)NC(=O)[C@H](C(C)(C)C)NC(=O)[C@@H](NC(=O)[C@H](Cc2c[nH]c3ccccc23)NC(C)=O)CSSC[C@@H](C(=O)N[C@@H](CCN)C(=O)N[C@H](C(=O)N[C@@H](CN)C(=O)N[C@H]2CCNC(=O)[C@H]([C@@H](C)O)NC(=O)[C@H](CCN)NC(=O)[C@H](CCN)NC(=O)[C@H](CC(C)C)NC(=O)[C@@H](Cc3ccccc3)NC(=O)[C@H](CCN)NC2=O)[C@@H](C)O)NC(=O)[C@H](Cc2ccc(O)cc2)NC(=O)[C@H](CO)NC1=O [Ex. 20] (Ac-WC[Tle]AS[dP]P[Nle]SYC[Dab]T[Dap][Dab][Dab][dF]L[Dab][Dab]T; disulfide 2-11; lactam 15-C) | 0.125 µg/mL | 0.5 µg/mL | 1 µg/mL | 0.25 µg/mL | 0.5 µg/mL | 0.25 µg/mL | 0.25 µg/mL | 1% |
| CCCC[C@@H]1NC(=O)[C@@H]2CCCN2C(=O)[C@H]2CCCN2C(=O)[C@H](CO)NC(=O)[C@H](C)NC(=O)[C@H](C(C)(C)C)NC(=O)[C@@H](NC(=O)[C@H](Cc2c[nH]c3ccccc23)NC(C)=O)CSSC[C@@H](C(=O)N[C@@H](CCN)C(=O)N[C@H](C(=O)N[C@@H](CCN)C(=O)N[C@H]2CCNC(=O)[C@H]([C@@H](C)O)NC(=O)[C@H](CCN)NC(=O)[C@H](CCN)NC(=O)[C@H](CC(C)C)NC(=O)[C@@H](Cc3ccccc3)NC(=O)[C@H](CCN)NC2=O)[C@H](C)O)NC(=O)[C@H](Cc2ccc(O)cc2)NC(=O)[C@H](CO)NC1=O [Ex. 21] (Ac-WC[Tle]AS[dP]P[Nle]SYC[Dab][aThr][Dab][Dab][Dab][dF]L[Dab][Dab]T; disulfide 2-11; lactam 15-C) | 0.25 µg/mL | 1 µg/mL | 2 µg/mL | 1 µg/mL | 0.25 µg/mL | 0.25 µg/mL | 0.5 µg/mL | <1% |
| CCCC[C@@H]1NC(=O)[C@@H]2CCCN2C(=O)[C@H]2CCCN2C(=O)[C@H](CO)NC(=O)[C@H](C)NC(=O)[C@H](C(C)(C)C)NC(=O)[C@@H](NC(=O)[C@H](Cc2c[nH]c3ccccc23)NC(C)=O)CSSC[C@@H](C(=O)N[C@@H](CCN)C(=O)NCC(=O)N[C@@H](CCN)C(=O)N[C@H]2CCNC(=O)[C@H]([C@@H](C)O)NC(=O)[C@H](CCN)NC(=O)[C@H](CCN)NC(=O)[C@H](CC(C)C)NC(=O)[C@@H](Cc3ccccc3)NC(=O)[C@H](CCN)NC2=O)NC(=O)[C@H](Cc2ccc(O)cc2)NC(=O)[C@H](CO)NC1=O [Ex. 22] (Ac-WC[Tle]AS[dP]P[Nle]SYC[Dab]G[Dab][Dab][Dab][dF]L[Dab][Dab]T; disulfide 2-11; lactam 15-C) | 0.125 µg/mL | 0.125 µg/mL | 1 µg/mL | 0.5 µg/mL | 0.5 µg/mL | 0.25 µg/mL | 0.25 µg/mL | <1% |
| CCCC[C@@H]1NC(=O)[C@@H]2CCCN2C(=O)[C@H]2CCCN2C(=O)[C@H](CO)NC(=O)[C@H](C)NC(=O)[C@H](C(C)(C)C)NC(=O)[C@@H](NC(=O)[C@H](Cc2c[nH]c3ccccc23)NC(C)=O)CSSC[C@@H](C(=O)N[C@@H](CCN)C(=O)NC(C)(C)C(=O)N[C@@H](CCN)C(=O)N[C@H]2CCNC(=O)[C@H]([C@@H](C)O)NC(=O)[C@H](CCN)NC(=O)[C@H](CCN)NC(=O)[C@H](CC(C)C)NC(=O)[C@@H](Cc3ccccc3)NC(=O)[C@H](CCN)NC2=O)NC(=O)[C@H](Cc2ccc(O)cc2)NC(=O)[C@H](CO)NC1=O [Ex. 23] (Ac-WC[Tle]AS[dP]P[Nle]SYC[Dab][Aib][Dab][Dab][Dab][dF]L[Dab][Dab]T; disulfide 2-11; lactam 15-C) | 0.25 µg/mL | 0.5 µg/mL | 2 µg/mL | 0.5 µg/mL | 0.5 µg/mL | 0.25 µg/mL | 0.5 µg/mL | 1% |
| CCCC[C@@H]1NC(=O)[C@@H]2CCCN2C(=O)[C@H]2CCCN2C(=O)[C@H](CO)NC(=O)[C@H](C)NC(=O)[C@H](C(C)(C)C)NC(=O)[C@@H](NC(=O)[C@H](Cc2c[nH]c3ccccc23)NC(C)=O)CSSC[C@@H](C(=O)N[C@@H](CCN)C(=O)N[C@H](C(=O)N[C@@H](CCN)C(=O)N[C@H]2CCNC(=O)[C@H]([C@@H](C)O)NC(=O)[C@H](CNC(=O)[C@@H](N)CCC(=O)O)NC(=O)[C@H](CCN)NC(=O)[C@H](CC(C)C)NC(=O)[C@@H](Cc3ccccc3)NC(=O)[C@H](CCN)NC2=O)[C@@H](C)O)NC(=O)[C@H](Cc2ccc(O)cc2)NC(=O)[C@H](CO)NC1=O [Ex. 25] (Ac-WC[Tle]AS[dP]P[Nle]SYC[Dab]T[Dab][Dab][Dab][dF]L[Dab][Dap](Glu)T; disulfide 2-11; lactam 15-C) | 2 µg/mL | 1 µg/mL | 8 µg/mL | 3 µg/mL | 1 µg/mL | 4 µg/mL | 4 µg/mL | 3% |
| CCCC[C@@H]1NC(=O)[C@@H]2CCCN2C(=O)[C@H]2CCCN2C(=O)[C@H](CO)NC(=O)[C@H](C)NC(=O)[C@H](C(C)(C)C)NC(=O)[C@@H](NC(=O)[C@H](Cc2c[nH]c3ccccc23)NC(C)=O)CSSC[C@@H](C(=O)NCC(=O)N[C@@H](CCN)C(=O)N[C@H](C(=O)N[C@@H](CCN)C(=O)N[C@H]2CCNC(=O)[C@H]([C@@H](C)O)NC(=O)[C@H](CCN)NC(=O)[C@H](CCN)NC(=O)[C@H](CC(C)C)NC(=O)[C@@H](Cc3ccccc3)NC(=O)[C@H](CCN)NC2=O)[C@@H](C)O)NC(=O)[C@H](Cc2ccc(O)cc2)NC(=O)[C@H](CO)NC1=O [Ex. 26] (Ac-WC[Tle]AS[dP]P[Nle]SYCG[Dab]T[Dab][Dab][Dab][dF]L[Dab][Dab]T; disulfide 2-11; lactam 16-C) | 0.0625 µg/mL | 0.125 µg/mL | 0.5 µg/mL | 0.25 µg/mL | 0.5 µg/mL | 0.25 µg/mL | 0.25 µg/mL | <1% |
| CCCC[C@@H]1NC(=O)[C@@H]2CCCN2C(=O)[C@H]2CCCN2C(=O)[C@H](CO)NC(=O)[C@H](C)NC(=O)[C@H](C(C)(C)C)NC(=O)[C@@H](NC(=O)[C@H](Cc2c[nH]c3ccccc23)NC(C)=O)CSSC[C@@H](C(=O)N[C@@H](CCN)C(=O)N[C@@H](CCN)C(=O)N[C@H](C(=O)N[C@@H](CCN)C(=O)N[C@H]2CCNC(=O)[C@H]([C@@H](C)O)NC(=O)[C@H](CCN)NC(=O)[C@H](CCN)NC(=O)[C@H](CC(C)C)NC(=O)[C@@H](Cc3ccccc3)NC(=O)[C@H](CCN)NC2=O)[C@@H](C)O)NC(=O)[C@H](Cc2ccc(O)cc2)NC(=O)[C@H](CO)NC1=O [Ex. 27] (Ac-WC[Tle]AS[dP]P[Nle]SYC[Dab][Dab]T[Dab][Dab][Dab][dF]L[Dab][Dab]T; disulfide 2-11; lactam 16-C) | 0.0625 µg/mL | 0.125 µg/mL | 0.5 µg/mL | 0.5 µg/mL | 0.125 µg/mL | 0.125 µg/mL | 0.25 µg/mL | <1% |
